Counter-ions that a name gives are not always drawn. Like-named read-outs stand apart in the source and are kept apart here.
Columns and labels:
5-HT2B = 5-HT2B (Homo sapiens (Human), UniProt P41595); assay: 5-HT2B Gq-mediated calcium flux functional assay; assay type: cell-based
5-HT2A = 5-HT2A (Homo sapiens (Human), UniProt P28223); assay: 5-HT2A Gq-mediated calcium flux functional assay; assay type: cell-based
5-HT1A = 5-HT1A (Homo sapiens (Human), UniProt P08908); assay: 5-HT1A Gi/o-mediated cAMP inhibition, GloSensor assay; assay type: cell-based; conditions: for 5-HT1A-cAMP Emax (% 5-HT): cAMP inhibition, 0.2 μM isoproterenol, IA = Inactive
5-HT2C = 5-HT2C (Homo sapiens (Human), UniProt P28335); assay: 5-HT2C Gq-mediated calcium flux functional assay; assay type: cell-based
Serotonin 5-HT2A (human) = Serotonin 5-HT2A (human) (Homo sapiens (Human), UniProt P28223); assay: 5-HT2A receptor binding, [3H]-ketanserin competition in membrane fractions; conditions: for 5-HT2A pKi ± SEM: 1 nM [3H]-ketanserin, Cheng-Prusoff, N=1-3

5-HT2C, sequence (P28335 whole entry, looked up): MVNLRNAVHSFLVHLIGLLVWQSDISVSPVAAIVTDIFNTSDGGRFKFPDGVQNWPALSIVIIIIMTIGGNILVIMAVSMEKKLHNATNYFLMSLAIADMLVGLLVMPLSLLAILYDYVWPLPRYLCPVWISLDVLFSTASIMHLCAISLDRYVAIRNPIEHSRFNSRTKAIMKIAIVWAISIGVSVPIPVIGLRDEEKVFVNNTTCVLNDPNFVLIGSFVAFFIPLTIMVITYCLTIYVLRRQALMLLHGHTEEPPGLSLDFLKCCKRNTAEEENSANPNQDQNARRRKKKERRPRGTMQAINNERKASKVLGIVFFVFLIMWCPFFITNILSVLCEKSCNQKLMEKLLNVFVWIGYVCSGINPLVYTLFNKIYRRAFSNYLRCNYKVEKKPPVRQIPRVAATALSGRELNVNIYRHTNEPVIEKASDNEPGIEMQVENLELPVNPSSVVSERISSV
5-HT2B, sequence (P41595 whole entry): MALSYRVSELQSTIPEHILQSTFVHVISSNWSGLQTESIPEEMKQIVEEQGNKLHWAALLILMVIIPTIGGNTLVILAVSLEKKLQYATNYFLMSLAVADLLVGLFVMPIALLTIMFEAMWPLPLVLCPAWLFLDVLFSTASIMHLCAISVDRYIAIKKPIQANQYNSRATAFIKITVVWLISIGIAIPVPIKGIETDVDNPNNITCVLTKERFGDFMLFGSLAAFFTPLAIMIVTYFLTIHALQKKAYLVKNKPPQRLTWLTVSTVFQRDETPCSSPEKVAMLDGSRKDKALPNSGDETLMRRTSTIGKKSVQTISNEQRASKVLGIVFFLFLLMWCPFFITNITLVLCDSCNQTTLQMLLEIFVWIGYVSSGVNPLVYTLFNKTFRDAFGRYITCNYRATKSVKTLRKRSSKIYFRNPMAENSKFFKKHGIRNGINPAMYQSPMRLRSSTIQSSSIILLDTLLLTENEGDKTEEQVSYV

SMILES | melting point | EC50 (5-HT2B) | 5-HT2B-Ca2+ FLUX Emax (% 5-HT) (5-HT2B; IA = Inactive, N=1-3) | EC50 (5-HT2A) | 5-HT2A-Ca2+ FLUX Emax (% 5-HT) (5-HT2A; IA = Inactive, N=1-3) | EC50 (5-HT1A) | 5-HT1A-cAMP Emax (% 5-HT) (5-HT1A) | EC50 (5-HT2C) | 5-HT2C-Ca2+ FLUX Emax (% 5-HT) (5-HT2C; IA = Inactive, N=1-3) | further results
CCN(C)CC(=O)c1c[nH]c2ccc(F)cc12 | 160.1 to 164.8 °C | – | – | – | – | – | – | – | – | –
CC(C1CC1)N(C)CCc1c[nH]c2ccc(F)cc12 (centres unmarked) (as salt: HCl) | 100.7 to 101.5 °C | – | – | – | – | – | – | – | – | –
CCC(C)N(C)CCc1c[nH]c2ccc(F)cc12 (centres unmarked) (as salt: HCl) [Example 3, N-(2-(5-fluoro-1H-indol-3-yl)ethyl)-N-methylbutan-2-amine] | 136.5 to 142 °C | – | – | – | – | – | – | – | – | –
CCCN(CCc1c[nH]c2ccc(F)cc12)C(C)C (as salt: HCl) [Example 4, N-(2-(5-fluoro-1H-indol-3-yl)ethyl)-N-isopropylpropan-1-amine] | 155.8 to 158 °C | – | – | – | – | – | – | – | – | –
CCCN(CCC)CCc1c[nH]c2ccc(F)cc12 (as salt: HCl) [Example 5, N-(2-(5-fluoro-1H-indol-3-yl)ethyl)-N-propylpropan-1-amine] | 187.5 to 188 °C | – | – | – | – | – | – | – | – | –
CCCN(CC)CCc1c[nH]c2ccc(F)cc12 (as salt: HCl) [Example 6, N-ethyl-N-(2-(5-fluoro-1H-indol-3-yl)ethyl)propan-1-amine] | 154.5 to 155.4 °C | – | – | – | – | – | – | – | – | –
C=CCN(CCc1c[nH]c2ccc(F)cc12)C(C)C (as salt: HCl) [Example 11, N-(2-(5-fluoro-1H-indol-3-yl)ethyl)-N-isopropylprop-2-en-1-amine] | 132 to 134 °C | – | – | – | – | – | – | – | – | –
C=CCN(CCc1c[nH]c2ccc(F)cc12)C1CCC1 (as salt: HCl) [Example 14, N-allyl-N-(2-(5-fluoro-1H-indol-3-yl)ethyl)cyclobutanamine] | 196.3 to 199 °C | – | – | – | – | – | – | – | – | –
C=CCN(CCc1c[nH]c2ccc(F)cc12)C(C)CC (centres unmarked) (as salt: HCl) [compound 16, N-allyl-N-(2-(5-fluoro-1H-indol-3-yl)ethyl)butan-2-amine] | 157 to 161.8 °C | – | – | – | – | – | – | – | – | –
CC(C)N(CC#N)CCc1c[nH]c2ccc(F)cc12 (as salt: HCl) [compound 17, 2-((2-(5-fluoro-1H-indol-3-yl)ethyl)(isopropyl)amino)acetonitrile] | 147 to 150 °C (dec.) | – | – | – | – | – | – | – | – | –
CN(CCc1c[nH]c2ccc(F)cc12)C1CSC1 (as salt: HCl) [compound 20, N-(2-(5-fluoro-1H-indol-3-yl)ethyl)-N-methylthietan-3-amine] | 221 to 223.3 °C | – | – | – | – | – | – | – | – | –
CCC(C)N(CCc1c[nH]c2ccc(F)cc12)C(C)C (centres unmarked) (as salt: HCl) [compound 32, N-(2-(5-fluoro-1H-indol-3-yl)ethyl)-N-isopropylbutan-2-amine] | 193.7 to 195 °C | – | – | – | – | – | – | – | – | –
CCCN(CC)CCc1c[nH]c2ccc(F)c(F)c12 (as salt: fumarate) [compound 21, N-(2-(4,5-difluoro-1H-indol-3-yl)ethyl)-N-ethylpropan-1-amine] | 182.1 to 183.3 °C | – | – | – | – | – | – | – | – | –
CC(C)N(CCc1c[nH]c2ccc(F)cc12)CC1CC1 (as salt: hydrochloride) | 191 to 192.5 °C | – | – | – | – | – | – | – | – | –
CCN(CCc1c[nH]c2ccc(F)cc12)C1CC1 (as salt: hydrochloride) | 219.7 to 220.1 °C | – | – | – | – | – | – | – | – | –
CC(C)C(C)N(C)CCc1c[nH]c2ccc(F)cc12 (centres unmarked) (as salt: hydrochloride) | 157.5 to 158.1 °C | – | – | – | – | – | – | – | – | –

SMILES | melting point | EC50 (5-HT2B) | 5-HT2B-Ca2+ FLUX Emax (% 5-HT) (5-HT2B; IA = Inactive, N=1-3) | EC50 (5-HT2A) | 5-HT2A-Ca2+ FLUX Emax (% 5-HT) (5-HT2A; IA = Inactive, N=1-3) | EC50 (5-HT1A) | 5-HT1A-cAMP Emax (% 5-HT) (5-HT1A) | EC50 (5-HT2C) | 5-HT2C-Ca2+ FLUX Emax (% 5-HT) (5-HT2C; IA = Inactive, N=1-3) | further results
CCCN(CCc1c[nH]c2ccc(F)cc12)C(C)CC (centres unmarked) (as salt: hydrochloride) [compound 22, N-(2-(5-fluoro-1H-indol-3-yl)ethyl)-N-propylbutan-2-amine] | 153.2 to 155.4 °C | – | – | – | – | – | – | – | – | –
C=CCN(CC)CCc1c[nH]c2ccc(F)cc12 (as salt: hydrochloride) [compound 36, N-ethyl-N-(2-(5-fluoro-1H-indol-3-yl)ethyl)prop-2-en-1-amine] | 123.7 to 128.5 °C | – | – | – | – | – | – | – | – | –
CCCN(CC)CCc1c[nH]c2cc(Cl)c(F)cc12 (as salt: hydrochloride) [compound 37, N-(2-(6-chloro-5-fluoro-1H-indol-3-yl)ethyl)-N-ethylpropan-1-amine] | 231 to 232.6 °C | – | – | – | – | – | – | – | – | –
CC(C)CN(C)CCc1c[nH]c2ccc(F)cc12 (as salt: hydrochloride) [compound 39, N-(2-(5-fluoro-1H-indol-3-yl)ethyl)-N,2-dimethylpropan-1-amine] | 150 to 151.5 °C | – | – | – | – | – | – | – | – | –
CC(C)N(C)CCc1c[nH]c2ccc(F)cc12 [Example 2, N-(2-(5-fluoro-1H-indol-3-yl)ethyl)-N-methylpropan-2-amine] | – | 3.31 nM | 68.6 ± 1.7 % 5-HT | 1.95 nM | 95.1 ± 0.8 % 5-HT | 1820 nM | 93.2 ± 4.7 % 5-HT | 21.9 nM | 64.6 ± 1.7 % 5-HT | 5-HT2A pKi ± SEM (Serotonin 5-HT2A (human)): 6.36 ± 0.003
CCCN(CCC)CCc1c[nH]c2ccc(F)cc12 [Example 5, N-(2-(5-fluoro-1H-indol-3-yl)ethyl)-N-propylpropan-1-amine] | – | 0.759 nM | 104.1 ± 0.7 % 5-HT | 0.724 nM | 106.7 ± 0.8 % 5-HT | 74.1 nM | 87.5 ± 1.6 % 5-HT | 3.39 nM | 109.3 ± 3.1 % 5-HT | 5-HT2A pKi ± SEM (Serotonin 5-HT2A (human)): 6.20
CCCN(CC)CCc1c[nH]c2ccc(F)cc12 [Example 6, N-ethyl-N-(2-(5-fluoro-1H-indol-3-yl)ethyl)propan-1-amine] | – | 1.1 nM | 101.2 ± 0.7 % 5-HT | 0.776 nM | 103.5 ± 0.8 % 5-HT | 49 nM | 90.5 ± 1.8 % 5-HT | 1.78 nM | 111.7 ± 2.5 % 5-HT | 5-HT2A pKi ± SEM (Serotonin 5-HT2A (human)): 6.06 ± 0.13
C=CCN(C)CCc1c[nH]c2ccc(F)cc12 [Example 10, N-(2-(5-fluoro-1H-indol-3-yl)ethyl)-N-methylprop-2-en-1-amine] | – | 0.955 nM | 73.8 ± 2.3 % 5-HT | 0.479 nM | 100.3 ± 2.2 % 5-HT | 89.1 nM | 97.8 ± 2.7 % 5-HT | 3.02 nM | 97.4 ± 2.6 % 5-HT | Ki (Serotonin 5-HT2A (human)): 309 nM
CCN(C)CCc1c[nH]c2ccc(F)cc12 [Example 12, N-ethyl-2-(5-fluoro-1H-indol-3-yl)-N-methylethan-1-amine] | – | 2.29 nM | 65.8 ± 1.6 % 5-HT | 1.74 nM | 101.8 ± 1.1 % 5-HT | 75.9 nM | 91.1 ± 1.7 % 5-HT | 1.58 nM | 117.2 ± 2.5 % 5-HT | 5-HT2A pKi ± SEM (Serotonin 5-HT2A (human)): 6.66 ± 0.12
C=CCN(CCc1c[nH]c2ccc(F)cc12)C(C)CC (centres unmarked) [compound 16, N-allyl-N-(2-(5-fluoro-1H-indol-3-yl)ethyl)butan-2-amine] | – | 2.09 nM | 97.4 ± 1.7 % 5-HT | 0.871 nM | 103.4 ± 1.8 % 5-HT | 166 nM | 94.2 ± 2.2 % 5-HT | 49 nM | 84.3 ± 3.4 % 5-HT | Ki (Serotonin 5-HT2A (human)): 1660 nM
CCC(C)N(CC)CCc1c[nH]c2ccc(F)cc12 (centres unmarked) [compound 30, N-ethyl-N-(2-(5-fluoro-1H-indol-3-yl)ethyl)butan-2-amine] | – | 3.47 nM | 83.8 ± 2.1 % 5-HT | 2.45 nM | 93.2 ± 1.7 % 5-HT | 468 nM | 104.0 ± 3.1 % 5-HT | 148 nM | 72.2 ± 2.9 % 5-HT | 5-HT2A pKi ± SEM (Serotonin 5-HT2A (human)): 5.70 ± 0.39
CCC(C)N(CCc1c[nH]c2ccc(F)cc12)C(C)C (centres unmarked) [compound 32, N-(2-(5-fluoro-1H-indol-3-yl)ethyl)-N-isopropylbutan-2-amine] | – | 0.955 nM | 108.0 ± 1.8 % 5-HT | 1.12 nM | 106.8 ± 1.7 % 5-HT | 1260 nM | 88.5 ± 2.8 % 5-HT | 64.6 nM | 101.5 ± 2.7 % 5-HT | 5-HT2A pKi ± SEM (Serotonin 5-HT2A (human)): 5.86 ± 0.16
C=CCN(CC)CCc1c[nH]c2ccc(F)cc12 [compound 36, N-ethyl-N-(2-(5-fluoro-1H-indol-3-yl)ethyl)prop-2-en-1-amine] | – | 1.74 nM | 104.5 ± 2.0 % 5-HT | 1.2 nM | 104.8 ± 2.0 % 5-HT | 56.2 nM | 98.4 ± 1.5 % 5-HT | 17 nM | 101.5 ± 1.9 % 5-HT | 5-HT2A pKi ± SEM (Serotonin 5-HT2A (human)): 6.13 ± 0.08
CC(C)N(CCc1c[nH]c2ccc(F)cc12)C1CCC1 [compound 40, N-(2-(5-fluoro-1H-indol-3-yl)ethyl)-N-isopropylcyclobutanamine] | – | 1.1 nM | 106.7 ± 1.5 % 5-HT | 0.891 nM | 102.5 ± 2.0 % 5-HT | 66.1 nM | 102.1 ± 1.7 % 5-HT | 112 nM | 94.9 ± 2.0 % 5-HT | 5-HT2A pKi ± SEM (Serotonin 5-HT2A (human)): 6.06 ± 0.05
CC(CN)c1c[nH]c2ccc(F)cc12 (centres unmarked) [compound 187, 2-(5-fluoro-1H-indol-3-yl)propan-1-amine] | – | – | 89.0 ± 1.4 % 5-HT | – | 90.7 ± 2.5 % 5-HT | 933 nM | 88.5 ± 2.8 % 5-HT | – | 93.6 ± 0.9 % 5-HT | EC50 (5-HT2B; IA = Inactive, N=1-3, read-out: 5-HT2B-Ca2+ FLUX pEC50 (converted)): 1.26 nM; EC50 (5-HT2A; IA = Inactive, N=1-3, read-out: 5-HT2A-Ca2+ FLUX pEC50 (converted)): 36.3 nM; EC50 (5-HT2C; IA = Inactive, N=1-3, read-out: 5-HT2C-Ca2+ FLUX pEC50 (converted)): 18.6 nM; 5-HT2A pKi ± SEM (Serotonin 5-HT2A (human)): 5.41

Source: patent US20240286998A1, “F[…], ANALOGUES THEREOF, AND METHODS USING SAME” (Saint Joseph's University, priority 2021, published 2024)
